For 1 compound, Kd results are on record in publication PMC5428041, “Dynamic equilibrium on DNA defines transcriptional regulation of a multidrug binding transcriptional repressor, LmrR” (Scientific Reports, 2017).

Each structure is given as a SMILES string. pKd: −log10 of the molar value.

The target of this experiment is T1, LmrR (Lactococcus cremoris, UniProt A2RI36).
T1 construct: gene llmg_0323; C-terminal His6-tagged LmrR (homodimer)
The experiment is described as follows: ITC ([…] stoichiometry, […] °C); supported by NMR titration. Type of experiment: binding.

T1 sequence (A2RI36 entry or part of it): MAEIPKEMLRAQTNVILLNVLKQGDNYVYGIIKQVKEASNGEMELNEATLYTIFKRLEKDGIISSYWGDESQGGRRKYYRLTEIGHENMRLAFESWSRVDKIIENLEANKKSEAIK

In turn, `Cc1cc2nc3c(=O)[nH]c(=O)nc-3n(C[C@H](O)[C@H](O)[C@H](O)CO)c2cc1C` [riboflavin] showed a pKd of 6.48.
